Data from patent publication US20060013822A1, “Utilization of mhc class II binding motifs in immunization to produce immune, serum, monoclonal antibodies and vaccines” (priority 2002, published 2006).
Entries after “also recorded” stand apart in the source; their conditions may differ.

Key:
[1] = system: C57B1/6J mice; assay: Antibody response in sera of immunized C57B1/6J mice, fluorescence ELISA for anti-TR3 binding antibodies; type: in vivo, mouse; settings: immune sera collected after four weeks
Procedure: C57B1/6J mice were immunized with the native TR3 peptide 1-32 or with an altered TR3 sequence that contains a Threonine (T) to Phenylalanine (F) alteration at amino acid position 4 to introduce a known C57B1/6J MHC Class II binding motif. Immune sera were collected after four weeks and assessed for anti-TR3 binding antibodies by fluorescence ELISA.
(§1) The serum from rats immunized with TR3 peptide 1-32 were tested in a standard ELISA for epitope specificity. The protocol for ELISA has been described previously in (Tittle, Molecular Immunology 26:343-350, 1989), except that the substrate (methylumbelliferyl phosphate, MUP, Sigma-Aldrich, St. Louis, Mo.) was read fluorometrically rather than calorimetrically as with NPP (Nitrophenyl phosphate).
A T to F change in the sequence of TR3 at AA4 an H-2^b binding motif was generated and C57B1/6J mice were immunized with the native TR3 peptide or with the T-F variant peptide.

[2] = system: Lewis rats; assay: Antibody response in sera of immunized Lewis rats, fluorescence ELISA on TR3 peptide coated plates; type: in vivo, Lewis rat; settings: bled after six weeks; for antibody titer against TR3 peptide 1-32 in sera of rats immunized with the peptide: TR31-32 coated plates, before and after immunization
Procedure: Rats were immunized and rested for four weeks. Immune sera were assayed at 1:5000 and compared to pre-immune titers by fluorescence ELISA (see below) using TR3 peptide 1-32 coated plates.
Lewis rats were immunized with TR3 peptide 1-13 and after six weeks the animals were bled and sera tested for binding to TR31-13 or TR31-32 coated plates using fluorescence ELISA.
(§2) Two peptides were synthesized, TR3 peptide 1-13 and TR3 peptide 1-32. Both contain the binding motif but only one was long enough to have a portion hanging outside of the MHC Class II binding cleft. Lewis rats were immunized with one or the other of these peptides and sera tested for the presence of antibodies that would recognize the TR31-32 peptide before and after immunization.
as §1

[3] = system: Lymph node T cells from TR3 peptide 1-13 immune animals; assay: Standard T cell proliferation assay (3H-thymidine incorporation); type: cell-based, Lewis rat; settings: T cells from TR3 peptide 1-13 immune Lewis rats with antigen presenting cells; after 48 hours in culture, 18 hour period
Procedure: Lymph node T cells from TR3 peptide 1-13 immune animals were cultured in the presence of antigen presenting cells and either TR3 peptide 1-13 or TR3 peptide 14-32. ^3H-thymidine incorporation was assessed after 48 hours in culture for an 18 hour period. The T cells responded in this standard T cell proliferation assay to TR3 peptide 1-13 but not to TR3 peptide 14-32. […] This implies that the missing component is a B cell epitope.
as §2

Row | Substance | detectable anti-TR3 binding antibodies in immune sera of mice immunized with the peptide [1] | detectable anti-TR3 binding antibodies in immune sera of mice immunized with the peptide ([1]; listed as T-F variant peptide) | antibody titer against TR3 peptide 1-13 in sera of rats immunized with the peptide ([2]; TR31-13 coated plates) | antibody titer against TR3 peptide 1-32 in sera of rats immunized with the peptide [2] | antibody titer against TR3 peptide 1-32 in sera of rats immunized with the peptide ([2]; listed as TR3 peptide) | T cell proliferative response to the peptide in culture (3H-thymidine incorporation) [3]
1 | QGGFRSPRCDCAGDFHKKIGLFCCRGCPAGHY (Altered TR3 peptide with MHC class II binding motif from amino acids 4 through 12.; listed as Homo sapiens) | made an anti-TR3 response | immunogenic and induced an antibody response | – | – | – | –
2 | QGGTRSPRCDCAG (MEQRPRGCAAVAA) [TR3 peptide 1-13] | – | – | No detectable antibody | No detectable antibody | no appreciable antibody titer | very strong T cell responses; also recorded: good T-cell response
3 | TR3 peptide 14-32: amino acids 14-32 of the TR-3 peptide, extended peptide shown to be the B cell epitope (ALLLVLLGARAQGGTRSPR) | – | – | – | – | – | not
